The results in this text go back to the supplement of paper PMC5908809.

What all share (test): relative IC50 (inflection point of fitted viability curve, relative to fitted max inhibition); higher = less sensitive
Conditions in all cases: 72 h

One experiment concerns DERL-7 (IL-2 2.5 ng/mL). As for the experimental part: (§1)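 Drug sensitivity and resistance testing: 5 concentrations over a 10,000-fold range, 72 h at 37 °C, viability by CellTiter-Glo normalised to DMSO and benzethonium chloride controls. IC50 is the inflection point of a logistic fit (min fixed at 0, max fitted), so it is relative to the fitted maximal inhibition. Kept only where fitted max inhibition is at least 50%.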

The next experiment relates to IMC-1 (IL-2 20 ng/mL). On the procedure:
as §1

For a further experiment, the system named is KAI3 (IL-2 2.5 ng/mL). As for the experimental part:
as §1

The subject of the next experiment is KHYG-1 (IL-2 2.5 ng/mL). On the procedure: as §1
Another experiment relates to NK-92 (IL-2 2.5 ng/mL). On the procedure:
as §1

Another experiment relates to NK-YS (IL-2 2.5 ng/mL). On the procedure:
as §1

For a further experiment, the system named is NKL (IL-2 2.5 ng/mL). On the procedure: as §1
The next experiment has as its system SNK-6 (IL-2 2.5 ng/mL). As for the experimental part: as §1
Another experiment concerns YT (IL-2 2.5 ng/mL). On the procedure: as §1
Experiment [1] deals with normal primary NK cells, pool 1 (3 donors) (IL-2 2.5 ng/mL). As for the experimental part: as §1
Experiment [2] deals with normal primary NK cells, pool 1 (3 donors), resting (IL-2 0 ng/mL). As for the experimental part: as §1
Experiment [3] concerns normal primary NK cells, pool 2 (3 donors) (IL-2 2.5 ng/mL). On the procedure:
as §1

In experiment [4] the test system is normal primary NK cells, pool 3 (3 donors) (IL-2 2.5 ng/mL). As for the experimental part: as §1

The term relative IC50 denotes the concentration halfway between the upper and lower plateau of the fitted curve.

SMILES strings stand for the structures.

`C[C@@H](Oc1cc(-n2cnc3ccc(CN4CCN(C)CC4)cc32)sc1C(N)=O)c1ccccc1C(F)(F)F`: the “relative IC50” value was found to be 27.8 nM in the experiment on DERL-7 (IL-2 2.5 ng/mL); 37.1 nM with IMC-1 (IL-2 20 ng/mL); 187 nM in the experiment with KAI3 (IL-2 2.5 ng/mL); 17.1 nM in the experiment on KHYG-1 (IL-2 2.5 ng/mL); 7.34 nM in the experiment on NK-92 (IL-2 2.5 ng/mL); 90.5 nM in the experiment with NK-YS (IL-2 2.5 ng/mL). In addition, the “relative IC50” value was 46 nM with NKL (IL-2 2.5 ng/mL); 32.2 nM with SNK-6 (IL-2 2.5 ng/mL); 53 nM with YT (IL-2 2.5 ng/mL); 1780 nM in experiment [1]; 374 nM in experiment [2]; 1640 nM in [3]. In addition, the “relative IC50” value in experiment [4] was 2340 nM.

In the case of `COc1ccc(C2=N[C@@H](c3ccc(Cl)cc3)[C@@H](c3ccc(Cl)cc3)N2C(=O)N2CCNC(=O)C2)c(OC(C)C)c1` [Nutlin-3], the “relative IC50” value is 1470 nM in the experiment on DERL-7 (IL-2 2.5 ng/mL); 731 nM in the experiment with KAI3 (IL-2 2.5 ng/mL); 1090 nM in the experiment with NK-YS (IL-2 2.5 ng/mL); 1010 nM in the experiment with SNK-6 (IL-2 2.5 ng/mL); 1440 nM with YT (IL-2 2.5 ng/mL); 1490 nM in [1]. Also, the “relative IC50” value in experiment [2] stood at 442 nM; in experiment [3] it was 1960 nM; in experiment [4], 2750 nM.

Regarding `CC(C)[C@H]1C(=O)N[C@@H](CCCNC(=N)N)C(=O)NCC(=O)N[C@@H](CC(=O)O)C(=O)N[C@H](Cc2ccccc2)C(=O)N1C` [Cilengitide], the “relative IC50” value (in the experiment on IMC-1 (IL-2 20 ng/mL); in the experiment with KHYG-1 (IL-2 2.5 ng/mL); in the experiment with NK-92 (IL-2 2.5 ng/mL); with NKL (IL-2 2.5 ng/mL); with YT (IL-2 2.5 ng/mL); in experiment [1]) was more than 10000 nM throughout. Also, the “relative IC50” value in experiment [2], in [3] and in experiment [4] was more than 10000 nM throughout.

As to `CCCCC(=O)OCC(=O)[C@]1(O)Cc2c(O)c3c(c(O)c2[C@@H](O[C@H]2C[C@H](NC(=O)C(F)(F)F)[C@H](O)[C@H](C)O2)C1)C(=O)c1c(OC)cccc1C3=O` [Valrubicin], the “relative IC50” value in the experiment on DERL-7 (IL-2 2.5 ng/mL) was 63.4 nM; with IMC-1 (IL-2 20 ng/mL), 96 nM; with KAI3 (IL-2 2.5 ng/mL) it was 80.7 nM; in the experiment on KHYG-1 (IL-2 2.5 ng/mL), 164 nM; with NK-92 (IL-2 2.5 ng/mL) it was 160 nM; in the experiment on NK-YS (IL-2 2.5 ng/mL), 75.1 nM. For the same compound, the “relative IC50” value in the experiment on NKL (IL-2 2.5 ng/mL) came to 6.61 nM; in the experiment on SNK-6 (IL-2 2.5 ng/mL), 88.1 nM; in the experiment with YT (IL-2 2.5 ng/mL), 235 nM; in experiment [1], 256 nM; in experiment [2], 179 nM; in [3], 245 nM. The “relative IC50” value in experiment [4] is 381 nM.

Regarding `CC(C)c1cc(-c2n[nH]c(=O)n2-c2ccc3c(ccn3C)c2)c(O)cc1O` [Ganetespib], the “relative IC50” value stood at 5.92 nM in the experiment on DERL-7 (IL-2 2.5 ng/mL); 32.3 nM in the experiment with IMC-1 (IL-2 20 ng/mL); 11.8 nM in the experiment on KAI3 (IL-2 2.5 ng/mL); 27.4 nM with KHYG-1 (IL-2 2.5 ng/mL); 16.8 nM in the experiment on NK-92 (IL-2 2.5 ng/mL); 13.1 nM in the experiment with NK-YS (IL-2 2.5 ng/mL). In addition, the “relative IC50” value with NKL (IL-2 2.5 ng/mL) came out at 10.4 nM; in the experiment with SNK-6 (IL-2 2.5 ng/mL), 28.3 nM; with YT (IL-2 2.5 ng/mL), 35.8 nM; in [1], 5.67 nM; in experiment [2], 6.18 nM; in [3], 5.41 nM. Besides, the “relative IC50” value in experiment [4] amounted to 9 nM.

Turning to `C#Cc1cccc(Nc2ncnc3cc(OC)c(OCCCCCCC(=O)NO)cc23)c1` [CUDC-101], the “relative IC50” value in the experiment on DERL-7 (IL-2 2.5 ng/mL) worked out at 177 nM; with IMC-1 (IL-2 20 ng/mL) it was 1020 nM; with KAI3 (IL-2 2.5 ng/mL) it was 270 nM; with KHYG-1 (IL-2 2.5 ng/mL), 131 nM; in the experiment on NK-92 (IL-2 2.5 ng/mL) it was 277 nM; with NK-YS (IL-2 2.5 ng/mL) it was 889 nM. For the same compound, the “relative IC50” value was determined as 412 nM in the experiment on NKL (IL-2 2.5 ng/mL); 276 nM in the experiment on SNK-6 (IL-2 2.5 ng/mL); 267 nM in the experiment on YT (IL-2 2.5 ng/mL); 293 nM in experiment [1]; 198 nM in [2]; 347 nM in [3]. Besides, in experiment [4], the “relative IC50” value was 504 nM.

With `C=CCNC1=C2C[C@@H](C)C[C@H](OC)[C@H](O)[C@@H](C)/C=C(\C)[C@H](OC(N)=O)[C@@H](OC)/C=C\C=C(/C)C(=O)NC(=CC1=O)C2=O` [Tanespimycin], the “relative IC50” value in the experiment on DERL-7 (IL-2 2.5 ng/mL) was 126 nM; in the experiment with IMC-1 (IL-2 20 ng/mL) it was 291 nM; in the experiment with KAI3 (IL-2 2.5 ng/mL), 76.3 nM; with KHYG-1 (IL-2 2.5 ng/mL), 247 nM; with NK-92 (IL-2 2.5 ng/mL) it was 123 nM; with NK-YS (IL-2 2.5 ng/mL), 80.2 nM. Besides, the “relative IC50” value in the experiment on NKL (IL-2 2.5 ng/mL) came out at 59.1 nM; with SNK-6 (IL-2 2.5 ng/mL), 106 nM; in the experiment on YT (IL-2 2.5 ng/mL), 248 nM; in [1], 79.8 nM; in experiment [2], 145 nM; in experiment [3] it was 127 nM. For the same compound, the “relative IC50” value in experiment [4] amounted to 290 nM.

Regarding `Cc1ccc(NC(=O)c2ccc(CN3CCN(C)CC3)cc2)cc1Nc1nc(-c2cccnc2)cs1` [Masitinib], the “relative IC50” value with DERL-7 (IL-2 2.5 ng/mL) is 2000 nM; in the experiment on IMC-1 (IL-2 20 ng/mL), 3320 nM; in the experiment with KAI3 (IL-2 2.5 ng/mL) it was 2970 nM; with KHYG-1 (IL-2 2.5 ng/mL) it was 2690 nM; in the experiment on NK-92 (IL-2 2.5 ng/mL) it was 3690 nM; with NK-YS (IL-2 2.5 ng/mL) it was 2010 nM. The “relative IC50” value is 3390 nM in the experiment on NKL (IL-2 2.5 ng/mL); 4530 nM in the experiment with SNK-6 (IL-2 2.5 ng/mL); 2490 nM in the experiment with YT (IL-2 2.5 ng/mL); 3230 nM in experiment [1]; 3340 nM in [2]; 3500 nM in [3]. Besides, the “relative IC50” value in [4] turned out to be 3230 nM.
